Reference: PubChem BioAssay AID256 (DTP/NCI, 2004)
Inconclusive results and toxic doses are left out. How the source made its calls: active means survival T/C of 150% or more; inactive means T/C below 125% in these data.

System: CD2F1 mice, L1210 leukemia ip, survival T/C
Test: NCI In Vivo Anticancer Drug Screen. Data for tumor model L1210 Leukemia (intraperitoneal) in CD2F1 (CDF1) mice
Details: endpoint: mean survival time, higher = longer survival
Method in brief: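 In this screen, transplantable tumors were grown in mice given either the compound or its vehicle. Results were expressed as the treated measurement relative to the control measurement.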

[1] = dose: 100.0 mg/kg/injection, schedule: Q01DX001 (ip), vehicle: saline with Tween-80
[2] = dose: 200.0 mg/kg/injection, schedule: Q01DX001 (ip), vehicle: saline with Tween-80
[3] = dose: 400.0 mg/kg/injection, schedule: Q01DX001 (ip), vehicle: saline with Tween-80
[4] = dose: 100.0 mg/kg/injection, schedule: Q04DX003 (ip), vehicle: saline with Tween-80
[5] = dose: 200.0 mg/kg/injection, schedule: Q04DX003 (ip), vehicle: saline with Tween-80
[6] = dose: 400.0 mg/kg/injection, schedule: Q04DX003 (ip), vehicle: saline with Tween-80
[7] = dose: 400.0 mg/kg/injection, schedule: Q01DX009 (ip), vehicle: saline with Tween-80

Measured: T/C

O=C(O)c1c[nH]c2c(Cl)cccc2c1=O
inactive: dose: 100.0 mg/kg/injection, schedule: Q01DX001 (ip), vehicle: saline 102 % of control | dose: 200.0 mg/kg/injection, schedule: Q01DX001 (ip), vehicle: saline 100 % of control

CC(=O)OC1COCOC1C1OCOCC1OC(C)=O (configuration not stated)
inactive: dose: 50.0 mg/kg/injection, schedule: Q01DX009 (ip), vehicle: Klucel (hydroxypropylcellulose) (HPC) 102 % of control | dose: 100.0 mg/kg/injection, schedule: Q01DX009 (ip), vehicle: Klucel (hydroxypropylcellulose) (HPC) 102 % of control | dose: 200.0 mg/kg/injection, schedule: Q01DX009 (ip), vehicle: Klucel (hydroxypropylcellulose) (HPC) 110 % of control

O=[N+]([O-])c1ccc(/C=C2/c3ccccc3-c3nc4ccccc4cc32)cc1
inactive: [1] 93 % of control | [2] 87 % of control | [3] 93 % of control

S=P12N3CCN1CCN2CC3
inactive: dose: 7.7 mg/kg/injection, schedule: Q01DX001 (ip), vehicle: water 101 % of control | dose: 10.9 mg/kg/injection, schedule: Q01DX001 (ip), vehicle: water 95 % of control | dose: 15.7 mg/kg/injection, schedule: Q01DX001 (ip), vehicle: water 100 % of control | dose: 22.4 mg/kg/injection, schedule: Q01DX001 (ip), vehicle: water 97 % of control | dose: 32.0 mg/kg/injection, schedule: Q01DX001 (ip), vehicle: water 100 % of control | dose: 64.0 mg/kg/injection, schedule: Q01DX001 (ip), vehicle: saline 95 % of control | dose: 128.0 mg/kg/injection, schedule: Q01DX001 (ip), vehicle: saline 98 % of control

OC1CCN(c2c3ccccc3nc3ccccc23)CC1
inactive: dose: 12.5 mg/kg/injection, schedule: Q04DX002 (ip), vehicle: saline 100 % of control | dose: 25.0 mg/kg/injection, schedule: Q04DX002 (ip), vehicle: saline 100 % of control | dose: 50.0 mg/kg/injection, schedule: Q04DX002 (ip), vehicle: saline 116 % of control

O=[N+]([O-])c1ccccc1NS(=O)(=O)c1ccccc1
inactive: [1] 100 % of control | [2] 102 % of control | [3] 107 % of control

CC(C)C1=CC23CCC4C(C)(C(=O)O)CCCC4(C)C2CC13 (configuration not stated)
inactive: [4] 103 % of control | [5] 97 % of control | [6] 97 % of control

Nc1nnn(CCO)n1
inactive: dose: 100.0 mg/kg/injection, schedule: Q01DX009 (ip), vehicle: saline with Tween-80 100 % of control | dose: 200.0 mg/kg/injection, schedule: Q01DX009 (ip), vehicle: saline with Tween-80 97 % of control | [7] 96 % of control

Cc1nc2c(nc1C)C(=O)C(N1CCOCC1)=CC2=O
inactive: dose: 6.25 mg/kg/injection, schedule: Q04DX003 (ip), vehicle: saline 100 % of control | dose: 12.5 mg/kg/injection, schedule: Q01DX001 (ip), vehicle: saline 87 % of control | dose: 12.5 mg/kg/injection, schedule: Q04DX003 (ip), vehicle: saline 100 % of control | dose: 25.0 mg/kg/injection, schedule: Q01DX001 (ip), vehicle: saline 107 % of control | dose: 25.0 mg/kg/injection, schedule: Q04DX003 (ip), vehicle: saline 98 % of control | dose: 35.0 mg/kg/injection, schedule: Q04DX003 (ip), vehicle: saline 88 % of control | dose: 55.0 mg/kg/injection, schedule: Q04DX003 (ip), vehicle: saline 91 % of control | dose: 80.0 mg/kg/injection, schedule: Q04DX003 (ip), vehicle: saline 86 % of control

O=C(NC1CCc2ccccc21)c1ccccc1 (configuration not stated)
inactive: [4] 96 % of control | [5] 94 % of control | [7] 87 % of control | [6] 97 % of control

CC/C(I)=C(/CC)S(=O)(=O)c1ccc(C)cc1
inactive: dose: 100.0 mg/kg/injection, schedule: Q04DX003 (ip), vehicle: saline 95 % of control | dose: 200.0 mg/kg/injection, schedule: Q04DX003 (ip), vehicle: saline 103 % of control | dose: 400.0 mg/kg/injection, schedule: Q04DX003 (ip), vehicle: saline 94 % of control
